This experiment concerns bronchoconstriction induced by PAF. In words: Effect on bronchoconstriction induced by platelet activating factor (PAF) in guinea pigs (Konzett-Rossler method). The following applies: Cavia porcellus, po, 30 mg/kg orally 1 hour before PAF (1 μg/kg i.v.), suspended in 5% gum arabic, recorded for 15 minutes, male Hartley guinea pigs. It is filed as in vivo, guinea pig (male Hartley). On the procedure:
Effect On bronchoconstriction Induced By Platelet Activating Factor (PAF) In Guinea Pigs
Male Hartley guinea pigs (body weight 500 g) were used. The bronchoconstriction reaction in the guinea pig which has intravenously received PAF (1 μg/Kg) was measured by the Konzett-Rossler method. The trachea of the guinea pig with its back fixed was incised under anesthesia condition with urethane (intraperitoneal injection, 1.50 g/kg) and connected with an artificial respirator via a cannula. The branch of the tracheal cannula was connected with a transducer (7020 type, Ugobasile). Air was sent to the trachea at the volume of 3-7 ml/stroke, at the rate of 70 strokes/min. at load pressure of 10 cm H2 O to lung and overflowed air volume was recorded with Rectegraph (Recte-Hori-8s, Sanei Sokuki) via the transducer. After the guinea pig was treated with gallamine (1 mg/kg, i.v.), PAF (1 μg/kg) dissolved in a physiological saline solution was administered to the guinea pig via a jugular venous cannula and the bronchoconstriction reaction induced thereby was recorded for 15 minutes. The drug (30 mg/kg) suspended in a 5% gum arabic solution was administered orally 1 hour before the injection of PAF.

From patent US5155108A, “Imidazopyridazines and use as antiasthmatic agents” (Takeda Chemical Industries, Ltd., priority 1990, dated 1992) come the findings set out here.

What is called inhibition in vivo is the relative decrease from the control value, in per cent. Low readings indicate a weak effect, high ones a strong effect.

As to `CC(C)(COc1ccc2ncc(Cl)n2n1)CS(N)(=O)=O` [Example 45, 3-chloro-6-[(2,2-dimethyl-3-sulfamoylpropyl)oxy]imidazo[1,2-b]pyridazine], testing at 30 mg/kg gave an inhibition in vivo of 50%.

`NS(=O)(=O)CC(CSc1ccc2nccn2n1)c1ccccc1` (stereo not drawn) [Example 33] returned an inhibition in vivo at 30 mg/kg of 52%. `CCC(CSc1ccc2nccn2n1)CS(N)(=O)=O` (stereo not drawn) [Example 32] showed an inhibition in vivo at 30 mg/kg of 80%.

`O=S(=O)(CCSc1ccc2nccn2n1)NC1CC1` [Example 25, 6-[2-(N-cyclopropylsulfamoyl)ethylthio] imidazo[1,2-b]pyridazine] displayed an inhibition in vivo at 30 mg/kg of 47%.

As to `NS(=O)(=O)CCCSc1ccc2ncc(Cl)n2n1` [Example 43, 3-chloro-6[(3-sulfamoylpropyl)thio]imidazo[1,2-b]pyridazine], 30 mg/kg produced 54% inhibition in vivo. `CCC(COc1ccc2nccn2n1)CS(N)(=O)=O` (stereo not drawn) [Example 42] came in with an inhibition in vivo at 30 mg/kg of 55%. The compound `CN(C)S(=O)(=O)CCCSc1ccc2nccn2n1` [Example 9] displayed an inhibition in vivo at 30 mg/kg of 52%. As for `NS(=O)(=O)CCCOc1ccc2nccn2n1` [Example 41], testing at 30 mg/kg gave an inhibition in vivo of 66%. With `NS(=O)(=O)CCSc1ccc2nccn2n1` [Example 26] the figure was 42%; with `O=S(=O)(CCCSc1ccc2nccn2n1)NCCc1cccnc1` [Example 19], 41%. As for `C[C@@H](CSc1ccc2nccn2n1)CS(N)(=O)=O` [Example 35, (+)-6-[(2-(S)-methyl-3-sulfamoylpropyl)thio]imidazo[1,2-b]pyridazine], the figure is 79%; as for `CC(C)(CSc1ccc2nccn2n1)CS(N)(=O)=O` [Example 37, 6-[(3-sulfamoyl-2,2-dimethylpropyl)thio]imidazo[1,2-b]pyridazine], 99%. Compound `C[C@H](COc1ccc2nccn2n1)CS(N)(=O)=O` [Example 40, (+)-6-[(2-(R)-methyl-3-sulfamoylpropyl)oxy]imidazo[1,2-b]pyridazine] showed an inhibition in vivo at 30 mg/kg of 53%. Turning to `NS(=O)(=O)CCCCCSc1ccc2nccn2n1` [Example 29, 6-(5-sulfamoylpentylthio)imidazo[1,2-b]pyridazine], testing at 30 mg/kg gave an inhibition in vivo of 51%. `CCC(CC)(COc1ccc2nccn2n1)CS(N)(=O)=O` [Example 47, 6-[(2,2-diethyl-3-sulfamoylpropyl)oxy]imidazo[1,2-b]pyridazine] came in with an inhibition in vivo at 30 mg/kg of 90%. On to `NS(=O)(=O)CCCCSc1ccc2nccn2n1` [Example 30], for which the inhibition in vivo at 30 mg/kg came out at 73%. The compound `Cn1cccc1CCNS(=O)(=O)CCCSc1ccc2nccn2n1` [Example 20] registered an inhibition in vivo at 30 mg/kg of 41%. On to `CC(CSc1ccc2nccn2n1)CS(N)(=O)=O` (stereo not drawn) [Example 31], for which the inhibition in vivo at 30 mg/kg amounted to 74%. In turn, `NS(=O)(=O)CCC(Sc1ccc2nccn2n1)c1ccccc1` (stereo not drawn) [Example 34] had an inhibition in vivo at 30 mg/kg of 38%. In the case of `CC(C)(COc1ccc2nccn2n1)CS(N)(=O)=O` [Example 39, 6-[(2,2-dimethyl-3-sulfamoylpropyl)oxy]imidazo[1,2-b]pyridazine], at 30 mg/kg the inhibition in vivo was 72%. With `NS(=O)(=O)CCCSc1ccc2nccn2n1` [Example 1, 6-(3-sulfamoylpropylthio)imidazo [1,2-b]pyridazine] the figure was 71%.
